In brackets after ≈: the same amount, converted by molar mass.
How the values were obtained:
[1] = target: DdlB (Escherichia coli, UniProt P07862); assay: Determination of inhibitory activity on DdlB (colorimetric malachite green method); type: biochemical, E. coli; conditions: 37 °C, 700 µM D-Ala, 500 µM ATP, 30 min incubation, seven inhibitor concentrations
Experimental: The D-Ala-adding activity of DdlB ligase was monitored by the detection of orthophosphate generated during the reaction based on the colorimetric malachite green method (Walsh, A. et al. J Bacteriol. 1999, 181: 5395). […] All compounds were soluble in the assay mixture containing 5% DMSO. After 30 min of incubation, 100 µL Biomol® reagent was added. After 5 min, absorbance was read at 650 nm. Residual activity was calculated with respect to a similar assay without inhibitor. IC50 constants were determined by measuring residual activity at seven different inhibitor concentrations and represent the concentration of inhibitors where RA is 50%.

[2] = test system: E.coli 1411; assay: Determination of antimicrobial activity (MIC, broth microdilution); type: cell-based; conditions: IsoSensitest broth, inoculum 10^4 cells per mL, 16 h at 37 °C; unit assumed
Experimental: (§1) Minimal inhibitory concentrations (MICs) of compounds were determined by broth microdilution in IsoSensitest broth (Oxoid, Basingstoke, UK) using an inoculum of 10^4 cells per mL for E. coli or 10^6 cells per mL for S. aureus. The compounds under investigation were prepared in a 2-fold dilution series in 50% dimethyl sulfoxide (Sigma-Aldrich, Dorset, UK). Microwell plates with 96 wells (Nunc, Fisher Scientific, Loughborough, UK) containing the antimicrobial agent and bacterial suspension were incubated for 16 h at 37 °C in a Spectramax 384 plus microwell plate reader (Molecular Devices, Abingdon, UK), running SOFTmax PRO 3.1.1 software. Optical density readings (600 nm) were taken at 10 min intervals. Plates were shaken for 30 s before each reading. The MIC was taken as the lowest concentration of antimicrobial agent that prevented growth. The invention is further described in connection with the following non-limiting examples: […]

[3] = test system: E.coli SM 1411; assay: as above; type: cell-based; conditions: IsoSensitest broth, inoculum 10^4 cells per mL, 16 h at 37 °C; unit assumed
Experimental: as §1

[4] = test system: S.aureus 8325-4; assay: as above; type: cell-based; conditions: IsoSensitest broth, inoculum 10^6 cells per mL, 16 h at 37 °C; unit assumed
Experimental: as §1

SMILES	IC50 [1] [µM]	MIC E.coli 1411 [2] [µg/mL]	MIC E.coli SM 1411 [3] [µg/mL]	MIC S.aureus 8325-4 [4] [µg/mL]
O=C(N=NC(=O)NCc1ccccn1)NCCCl	119	> 256	> 256	> 256
O=C(N=NC(=O)NCc1ccccn1)NCc1ccccn1	158	> 256	> 256	> 256
CC(C)c1ccc(NC(=O)N=NC(=O)NCCCl)cc1	49	> 256	> 256	> 256
CCC(C)c1ccc(NC(=O)N=NC(=O)NCCCl)cc1 (stereo not shown)	25	> 256	> 256	> 256
O=C(N=NC(=O)NCc1cccnc1)NCc1cccnc1	123	> 256	> 256	> 256
O=C(N=NC(=O)NCC(Cl)(Cl)Cl)NCC(Cl)(Cl)Cl	187	> 256	> 256	> 256
O=C(/N=N/C(=O)NCCCl)NCCCl	133	> 256	> 256	> 256
CC(C)(C)c1ccc(NC(=O)N=NC(=O)NCCCl)cc1	37	> 256	> 256	> 256
O=C(N=NC(=O)Nc1ccccc1)NCc1ccccn1	111	64 (≈ 226 µM)	64 (≈ 226 µM)	64 (≈ 226 µM)
O=C(N=NC(=O)Nc1cccc(Cl)c1)NCc1cccnc1	15	64 (≈ 201 µM)	64 (≈ 201 µM)	256 (≈ 806 µM)
CC(NC(=O)N=NC(=O)Nc1ccccc1)c1ccccc1 (stereo not shown)	41	> 256	> 256	> 256
O=C(N=NC(=O)Nc1ccccc1)NCc1cccnc1 [drawing 18]	76	> 256	> 256	> 256
O=C(N=NC(=O)Nc1ccccc1)NCc1cccnc1 [drawing 22]	36	64 (≈ 226 µM)	64 (≈ 226 µM)	128 (≈ 452 µM)

Reference: patent publication EP1889831A2, “Diazenedicarboxamides as inhibitors of D-alanine: D-alanine ligase (Ddl)” (University of Ljubljana, priority 2006, dated 2008)
